Patent US10414811B2, “Protease-resistant lipidated GLP-1 analogs” (MEDIMMUNE LIMITED, priority 2015, dated 2019)
Like-named read-outs stand apart in the source and are kept apart here. Numbered stars: 1 amine (or outer) side, 2 acyl side, 3 side chain; on linkers, the order of the positions; unused ones are H or OH. Square brackets hold non-standard residues; d marks the D form. Side chains are listed from the residue outwards. Peptide text beside a SMILES is read from it. * marks the point of attachment. C18 diacid = O=C(O)CCCCCCCCCCCCCCCCC(=O)*; γGlu = O=C(O)[C@H](CCC(=O)[*:2])N[*:1]; Palmitoyl = CCCCCCCCCCCCCCCC(=O)*; αMeF = C[C@](N)(Cc1ccccc1)C(=O)O; αMeK = C[C@](N)(CCCCN)C(=O)O; Lauroyl = CCCCCCCCCCCC(=O)*; αMeS = C[C@](N)(CO)C(=O)O; Nle = CCCC[C@H](N)C(=O)O; AEEA = NCCOCCOCC(=O)O; Aib = CC(C)(N)C(=O)O

What was measured:
Format in all cases: cell-based
GLP-1R (INS1e assay) = molecular target: T1, GLP-1R (INS1e assay) (Rattus norvegicus, UniProt P32301); experiment: INS1e assay, cAMP activity at GLP-1R; conditions: bis-lipidated peptides
T1 construct: endogenous in cells; host or cells: INS-1E cells
T1 sequence (P32301 22-463): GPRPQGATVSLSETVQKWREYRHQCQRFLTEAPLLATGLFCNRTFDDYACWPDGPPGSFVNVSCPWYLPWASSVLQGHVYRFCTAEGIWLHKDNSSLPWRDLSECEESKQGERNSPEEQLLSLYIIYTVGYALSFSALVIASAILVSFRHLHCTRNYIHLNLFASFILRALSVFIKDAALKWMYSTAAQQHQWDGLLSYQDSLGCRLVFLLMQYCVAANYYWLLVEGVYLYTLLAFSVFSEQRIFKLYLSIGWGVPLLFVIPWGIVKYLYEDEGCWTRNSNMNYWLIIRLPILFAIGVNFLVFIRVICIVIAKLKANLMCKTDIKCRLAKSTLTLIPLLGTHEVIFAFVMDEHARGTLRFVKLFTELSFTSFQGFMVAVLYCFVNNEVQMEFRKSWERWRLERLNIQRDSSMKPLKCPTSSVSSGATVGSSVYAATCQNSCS
Method: cAMP levels are measured using a commercially available cAMP dynamic 2 HTRF kit (Cisbio, Cat #62AM4PEJ), following the two step protocol as per manufacturer's recommendations. In brief; anti-cAMP cryptate (donor fluorophore) and cAMP-d2 (acceptor fluorophore) are made up separately by diluting each 1/20 in conjugate & lysis buffer provided in the kit. 5 μL anti-cAMP cryptate is added to wells of the assay plate, and 5 μL cAMP-d2 is added to wells except non-specific binding (NSB) wells, to which conjugate and lysis buffer are added. […] EC50 values of the synthetic peptides determined in cAMP assays are then determined.

[1] = molecular target: T2, human GLP-1 receptor (GLP-1R) (Homo sapiens, UniProt P43220); experiment: cAMP assay, human GLP-1R cells
T2 construct: expressed in transfected cells
Procedure, shortened: (§1)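 Peptide-stimulated cAMP measured by two-step HTRF after a 30 min room-temperature incubation with receptor-expressing cells (hGLP-1R, hGIPR at 1×10^5 cells/ml; hGCGR at 2×10^5 cells/ml). Duplicate dilutions; EC50 from 4-parameter logistic fit of % Delta F.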

[2] = molecular target: T3, human glucose-dependent insulinotropic peptide receptor (GIPR) (Homo sapiens, UniProt P48546); experiment: cAMP assay, human GIPR cells
T3 construct: expressed in transfected cells
T3 sequence (P48546 22-466): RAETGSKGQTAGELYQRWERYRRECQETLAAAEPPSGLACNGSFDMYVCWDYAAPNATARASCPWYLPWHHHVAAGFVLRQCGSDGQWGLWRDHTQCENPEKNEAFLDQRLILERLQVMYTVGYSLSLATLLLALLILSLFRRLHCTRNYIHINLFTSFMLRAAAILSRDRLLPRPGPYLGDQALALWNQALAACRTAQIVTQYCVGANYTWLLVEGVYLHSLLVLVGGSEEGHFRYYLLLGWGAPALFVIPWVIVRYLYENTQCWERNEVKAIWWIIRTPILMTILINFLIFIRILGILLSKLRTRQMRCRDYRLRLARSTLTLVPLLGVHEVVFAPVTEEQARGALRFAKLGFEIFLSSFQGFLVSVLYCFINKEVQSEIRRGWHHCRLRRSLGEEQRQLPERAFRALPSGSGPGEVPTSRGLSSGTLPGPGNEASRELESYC
Procedure, shortened: as §1

[3] = molecular target: T4, human glucagon receptor (GCGR) (Homo sapiens, UniProt P47871); experiment: cAMP assay, human GCGR cells
T4 construct: expressed in transfected cells
Procedure, shortened: as §1

[4] = mean of n1 and n2, read-out: INS1e assay EC50 Mean pM GLP-1R
[5] = replicate n1, read-out: INS1e assay EC50 GLP-1R n1
[6] = replicate n2, read-out: INS1e assay EC50 GLP-1R n2
[7] = cAMP assay, first determination (n1), read-out: Primary assay EC50 GLP-1R n1
[8] = cAMP assay, second determination (n2), read-out: Primary assay EC50 GLP-1R n2
[9] = mean of n1 and n2, read-out: Mean pM GLP-1R
[10] = cAMP assay, first determination (n1), read-out: Primary assay EC50 GIP-R (n1)
[11] = cAMP assay, second determination (n2), read-out: Primary assay EC50 GIP-R (n2)
[12] = cAMP assay, first determination (n1), read-out: Primary assay EC50 Gluc-R (n1)
[13] = cAMP assay, second determination (n2), read-out: Primary assay EC50 Gluc-R (n2)

T4 sequence (P47871 26-477): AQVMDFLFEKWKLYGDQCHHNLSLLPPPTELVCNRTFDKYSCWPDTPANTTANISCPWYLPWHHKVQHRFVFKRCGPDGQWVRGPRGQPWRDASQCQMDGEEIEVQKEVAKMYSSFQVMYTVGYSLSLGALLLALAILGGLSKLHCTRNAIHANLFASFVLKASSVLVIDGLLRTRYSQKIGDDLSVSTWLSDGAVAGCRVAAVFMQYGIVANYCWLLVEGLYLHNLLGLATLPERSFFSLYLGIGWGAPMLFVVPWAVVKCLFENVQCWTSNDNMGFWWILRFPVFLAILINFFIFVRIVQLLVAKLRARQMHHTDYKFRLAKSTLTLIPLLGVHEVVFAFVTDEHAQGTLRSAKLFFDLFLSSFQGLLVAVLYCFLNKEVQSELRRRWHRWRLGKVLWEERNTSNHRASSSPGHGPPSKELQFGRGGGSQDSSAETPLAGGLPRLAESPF
T2 sequence (P43220 24-463): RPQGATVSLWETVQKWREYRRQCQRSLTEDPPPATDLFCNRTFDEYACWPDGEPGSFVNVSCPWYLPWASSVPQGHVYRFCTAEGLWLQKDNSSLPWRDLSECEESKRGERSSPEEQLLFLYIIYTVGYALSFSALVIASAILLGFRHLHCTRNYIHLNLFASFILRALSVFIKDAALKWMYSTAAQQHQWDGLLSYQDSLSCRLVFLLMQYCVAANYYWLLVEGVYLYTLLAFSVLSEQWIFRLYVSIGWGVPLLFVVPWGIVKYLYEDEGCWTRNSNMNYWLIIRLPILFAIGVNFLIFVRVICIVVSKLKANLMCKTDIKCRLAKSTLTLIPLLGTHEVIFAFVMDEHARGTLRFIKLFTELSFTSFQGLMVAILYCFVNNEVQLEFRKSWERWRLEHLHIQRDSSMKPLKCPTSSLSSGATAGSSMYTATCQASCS

| Structure (SMILES) | EC50 (GLP-1R (INS1e assay); [4]) [pM] | EC50 (GLP-1R (INS1e assay); [5]) [pM] | EC50 (GLP-1R (INS1e assay); [6]) [pM] | EC50 [1, 7] [pM] | EC50 [1, 8] [pM] | EC50 [1, 9] [pM] | EC50 [2, 10] [nM] | EC50 [2, 11] [nM] | EC50 [3, 12] [nM] | EC50 [3, 13] [nM] | further results |
| --- | --- | --- | --- | --- | --- | --- | --- | --- | --- | --- | --- |
| CCCCCCCCCCCCCCCC(=O)N[C@@H](CCC(=O)NCCOCCOCC(=O)NCCOCCOCC(=O)NCCCC[C@H](NC(=O)[C@H](C)NC(=O)[C@@H](NC(=O)[C@](C)(Cc1ccccc1)NC(=O)[C@H](CCC(=O)O)NC(=O)[C@](C)(CCCCN)NC(=O)[C@H](C)NC(=O)[C@H](C)NC(=O)[C@H](CCC(=O)O)NC(=O)CNC(=O)[C@H](CCC(=O)O)NC(=O)[C@H](CC(C)C)NC(=O)[C@H](CCCCNC(=O)COCCOCCNC(=O)COCCOCCNC(=O)CC[C@H](NC(=O)CCCCCCCCCCCCCCC)C(=O)O)NC(=O)[C@H](CO)NC(=O)[C@](C)(CO)NC(=O)[C@@H](NC(=O)[C@H](CC(=O)O)NC(=O)[C@H](CO)NC(=O)[C@@H](NC(=O)[C@](C)(Cc1ccccc1)NC(=O)[C@H](CO)NC(=O)CNC(=O)[C@H](CCC(=O)O)NC(=O)C(C)(C)NC(=O)[C@@H](N)Cc1c[nH]cn1)[C@@H](C)O)C(C)C)[C@@H](C)CC)C(=O)N[C@H](C(=O)N[C@H](C(=O)N[C@@H](CCC(=O)O)C(=O)NCC(=O)NCC(N)=O)C(C)C)C(C)C)C(=O)O [compound 409] (H-H[Aib]EGS[αMeF]TSDV[αMeS]SK([AEEA-AEEA-γGlu-Palmitoyl])LEGEAA[αMeK]E[αMeF]IAK([AEEA-AEEA-γGlu-Palmitoyl])VVEGG-NH2) | 216 | 183 | 249 | – | – | – | – | – | – | – | EC50 ([1]; bis-lipidated peptides, mean of n1 and n2, read-out: Primary assay EC50 Mean pM GLP-1R): 36.1 pM; EC50 ([1]; bis-lipidated peptides, replicate n1, read-out: Primary assay EC50 GLP-1R n1): 39.5 pM; EC50 ([1]; bis-lipidated peptides, replicate n2, read-out: Primary assay EC50 GLP-1R n2): 32.6 pM |
| CCCCCCCCCCCC(=O)N[C@@H](CCC(=O)NCCOCCOCC(=O)NCCOCCOCC(=O)NCCCC[C@H](NC(=O)[C@H](C)NC(=O)[C@@H](NC(=O)[C@H](CCCC)NC(=O)[C@H](CCC(=O)O)NC(=O)[C@](C)(CCCCN)NC(=O)[C@H](C)NC(=O)[C@H](C)NC(=O)[C@H](CCC(=O)O)NC(=O)CNC(=O)[C@H](CCC(=O)O)NC(=O)[C@H](CC(C)C)NC(=O)[C@H](CCCCNC(=O)COCCOCCNC(=O)COCCOCCNC(=O)CC[C@H](NC(=O)CCCCCCCCCCC)C(=O)O)NC(=O)[C@H](CO)NC(=O)[C@](C)(CO)NC(=O)[C@@H](NC(=O)[C@H](CC(=O)O)NC(=O)[C@H](CO)NC(=O)[C@@H](NC(=O)[C@](C)(Cc1ccccc1)NC(=O)[C@H](CO)NC(=O)CNC(=O)[C@H](CCC(=O)O)NC(=O)C(C)(C)NC(=O)[C@@H](N)Cc1c[nH]cn1)[C@@H](C)O)C(C)C)[C@@H](C)CC)C(=O)N[C@H](C(=O)N[C@H](C(=O)N[C@@H](CCC(=O)O)C(=O)NCC(=O)NCC(N)=O)C(C)C)C(C)C)C(=O)O [compound 407] (H-H[Aib]EGS[αMeF]TSDV[αMeS]SK([AEEA-AEEA-γGlu-Lauroyl])LEGEAA[αMeK]E[Nle]IAK([AEEA-AEEA-γGlu-Lauroyl])VVEGG-NH2) | 104 | 113 | 95.2 | – | – | – | – | – | – | – | – |
| CCCCCCCCCCCC(=O)N[C@@H](CCC(=O)NCCOCCOCC(=O)NCCOCCOCC(=O)NCCCC[C@H](NC(=O)[C@H](CCC(=O)O)NC(=O)[C@H](CC(C)C)NC(=O)[C@H](CCCCNC(=O)COCCOCCNC(=O)COCCOCCNC(=O)CC[C@H](NC(=O)CCCCCCCCCCC)C(=O)O)NC(=O)[C@H](CO)NC(=O)[C@](C)(CO)NC(=O)[C@@H](NC(=O)[C@H](CC(=O)O)NC(=O)[C@H](CO)NC(=O)[C@@H](NC(=O)[C@](C)(Cc1ccccc1)NC(=O)[C@H](CO)NC(=O)CNC(=O)[C@H](CCC(=O)O)NC(=O)C(C)(C)NC(=O)[C@@H](N)Cc1c[nH]cn1)[C@@H](C)O)C(C)C)C(=O)N[C@@H](CCC(=O)O)C(=O)N[C@@H](C)C(=O)N[C@@H](C)C(=O)N[C@@](C)(CCCCN)C(=O)N[C@@H](CCC(=O)O)C(=O)N[C@@H](Cc1ccccc1)C(=O)N[C@H](C(=O)N[C@@H](CCCCNC(=O)COCCOCCNC(=O)COCCOCCNC(=O)CC[C@H](NC(=O)CCCCCCCCCCC)C(=O)O)C(=O)N[C@@H](Cc1ccccc1)C(=O)N[C@H](C(=O)N[C@H](C(=O)N[C@@H](CCC(=O)O)C(=O)NCC(=O)NCC(N)=O)C(C)C)C(C)C)[C@@H](C)CC)C(=O)O [compound 447] (H-H[Aib]EGS[αMeF]TSDV[αMeS]SK([AEEA-AEEA-γGlu-Lauroyl])LEK([AEEA-AEEA-γGlu-Lauroyl])EAA[αMeK]EFIK([AEEA-AEEA-γGlu-Lauroyl])FVVEGG-NH2; N-terminus assumed) | – | – | – | – | – | – | – | – | – | – | EC50 ([1]; tris-lipidated peptides, mean of n1 and n2, read-out: Primary assay EC50 Mean pM GLP-1R): 150 pM; EC50 ([1]; tris-lipidated peptides, replicate n1, read-out: Primary assay EC50 GLP-1R n1): 123 pM; EC50 ([1]; tris-lipidated peptides, replicate n2, read-out: Primary assay EC50 GLP-1R n2): 176 pM; EC50 ([2]; tris-lipidated peptides, first replicate, read-out: Primary assay EC50 GIP-R (n1)): 19.7 nM; EC50 ([3]; tris-lipidated peptides, first replicate, read-out: Primary assay EC50 Gluc-R (n1)): 19.7 nM |
| CC[C@H](C)[C@H](NC(=O)[C@](C)(Cc1ccccc1)NC(=O)[C@H](CCC(=O)O)NC(=O)[C@](C)(CCCCN)NC(=O)[C@H](C)NC(=O)[C@H](C)NC(=O)[C@H](CCC(=O)O)NC(=O)CNC(=O)[C@H](CCC(=O)O)NC(=O)[C@H](CC(C)C)NC(=O)[C@](C)(Cc1ccccc1)NC(=O)[C@H](CO)NC(=O)[C@](C)(CO)NC(=O)[C@@H](NC(=O)[C@H](CCCCNC(=O)COCCOCCNC(=O)COCCOCCNC(=O)CC[C@H](NC(=O)CCCCCCCCCCCCCCCCC(=O)O)C(=O)O)NC(=O)[C@H](CO)NC(=O)[C@@H](NC(=O)[C@](C)(Cc1ccccc1)NC(=O)[C@H](CO)NC(=O)CNC(=O)[C@H](CCC(=O)O)NC(=O)C(C)(C)NC(=O)[C@@H](N)Cc1c[nH]cn1)[C@@H](C)O)C(C)C)C(=O)N[C@@H](C)C(=O)N[C@@](C)(Cc1ccccc1)C(=O)N[C@H](C(=O)N[C@H](C(=O)N[C@@](C)(CCCCN)C(=O)NCC(=O)NCC(N)=O)C(C)C)C(C)C [compound 120] (H-H[Aib]EGS[αMeF]TSK([AEEA-AEEA-γGlu-C18 diacid])V[αMeS]S[αMeF]LEGEAA[αMeK]E[αMeF]IA[αMeF]VV[αMeK]GG-NH2) | – | – | – | 4100 | 3130 | 3640 | ≥ 25 | ≥ 25.3 | ≥ 25 | ≥ 25.3 | – |
| CCCCCCCCCCCCCCCC(=O)N[C@@H](CCC(=O)NCCCC[C@H](NC(=O)[C@@H](NC(=O)[C@H](CC(=O)O)NC(=O)[C@H](CO)NC(=O)[C@@H](NC(=O)[C@](C)(Cc1ccccc1)NC(=O)[C@H](CO)NC(=O)CNC(=O)[C@H](CCC(=O)O)NC(=O)C(C)(C)NC(=O)[C@@H](N)Cc1c[nH]cn1)[C@@H](C)O)C(C)C)C(=O)N[C@@H](CO)C(=O)N[C@@](C)(Cc1ccccc1)C(=O)N[C@@H](CC(C)C)C(=O)N[C@@H](CCC(=O)O)C(=O)NCC(=O)N[C@@H](CCC(=O)O)C(=O)N[C@@H](C)C(=O)N[C@@H](C)C(=O)N[C@@](C)(CCCCN)C(=O)N[C@@H](CCC(=O)O)C(=O)N[C@@](C)(Cc1ccccc1)C(=O)N[C@H](C(=O)N[C@@H](C)C(=O)N[C@@](C)(Cc1ccccc1)C(=O)N[C@H](C(=O)N[C@H](C(=O)N[C@@](C)(CCCCN)C(=O)NCC(=O)NCC(N)=O)C(C)C)C(C)C)[C@@H](C)CC)C(=O)O [compound 89] | – | – | – | 450 | 650 | 548 | ≥ 28 | ≥ 28 | ≥ 28 | ≥ 28 | – |
